From PMC12195740, “Discovery of Novel Imidazothiazole-Based Hydroxamic Acid Derivatives as Potent Indoleamine 2,3-Dioxygenase 1 and Histone Deacetylase 6 Dual Inhibitors” (Molecules, 2025) come the findings set out here.

For assay [1], the system named is Ac-α-tubulin (substrate for HDAC6). In words: Western blot of Ac-α-tubulin in HCT-116 cells. The format is cell-based. The settings on record: HCT-116, 5−20 μM, 24 h. The protocol:
Since HDACs regulate the acetylation status of histone and nonhistone proteins in cells, the acetylation levels of histone H3 (a known substrate for HDACs 1, 2, and 3) and α-tubulin (a known substrate for HDAC6) are frequently used as markers of cellular HDAC activity. […] HCT-116 cells were incubated with compound 10e (5−20 μM) for 24 h, and the levels of acetylation of histone H3 and α-tubulin were detected by the Western blot. […]
with 75% cold ethanol at 4 °C overnight. After that, fixed cells were washed with PBS. Then, cells were isolated by centrifugation and stained with propidium iodide (KeyGEN BioTECH, China) for 30 min. The samples were measured using flow cytometry and analyzed by Flowjo software.
Section S 1.6 Western blot assay
Total cell lysates from cultured HCT-116 cells after treatment with compound 10e as mentioned earlier were obtained by lysing the cells in ice-cold RIPA buffer with protease and phosphatase inhibitor and stored at -20°C for future use. The protein concentrations were quantified by the Bradford method (Bio-Rad) using a Multimode Varioscan instrument (Thermo Fischer Scientific). […]
The in vivo antitumor activity of compound 10e was evaluated in the mouse colon carcinoma cell line CT-26 in BALB/c mice as described previously. […]
(Immunoblotting shows a protein as a band on a membrane.)

For assay [2], the target named is T1, HDAC6 human recombinant enzyme (Homo sapiens, UniProt Q9UBN7).
T1 sequence (Q9UBN7 1-1215): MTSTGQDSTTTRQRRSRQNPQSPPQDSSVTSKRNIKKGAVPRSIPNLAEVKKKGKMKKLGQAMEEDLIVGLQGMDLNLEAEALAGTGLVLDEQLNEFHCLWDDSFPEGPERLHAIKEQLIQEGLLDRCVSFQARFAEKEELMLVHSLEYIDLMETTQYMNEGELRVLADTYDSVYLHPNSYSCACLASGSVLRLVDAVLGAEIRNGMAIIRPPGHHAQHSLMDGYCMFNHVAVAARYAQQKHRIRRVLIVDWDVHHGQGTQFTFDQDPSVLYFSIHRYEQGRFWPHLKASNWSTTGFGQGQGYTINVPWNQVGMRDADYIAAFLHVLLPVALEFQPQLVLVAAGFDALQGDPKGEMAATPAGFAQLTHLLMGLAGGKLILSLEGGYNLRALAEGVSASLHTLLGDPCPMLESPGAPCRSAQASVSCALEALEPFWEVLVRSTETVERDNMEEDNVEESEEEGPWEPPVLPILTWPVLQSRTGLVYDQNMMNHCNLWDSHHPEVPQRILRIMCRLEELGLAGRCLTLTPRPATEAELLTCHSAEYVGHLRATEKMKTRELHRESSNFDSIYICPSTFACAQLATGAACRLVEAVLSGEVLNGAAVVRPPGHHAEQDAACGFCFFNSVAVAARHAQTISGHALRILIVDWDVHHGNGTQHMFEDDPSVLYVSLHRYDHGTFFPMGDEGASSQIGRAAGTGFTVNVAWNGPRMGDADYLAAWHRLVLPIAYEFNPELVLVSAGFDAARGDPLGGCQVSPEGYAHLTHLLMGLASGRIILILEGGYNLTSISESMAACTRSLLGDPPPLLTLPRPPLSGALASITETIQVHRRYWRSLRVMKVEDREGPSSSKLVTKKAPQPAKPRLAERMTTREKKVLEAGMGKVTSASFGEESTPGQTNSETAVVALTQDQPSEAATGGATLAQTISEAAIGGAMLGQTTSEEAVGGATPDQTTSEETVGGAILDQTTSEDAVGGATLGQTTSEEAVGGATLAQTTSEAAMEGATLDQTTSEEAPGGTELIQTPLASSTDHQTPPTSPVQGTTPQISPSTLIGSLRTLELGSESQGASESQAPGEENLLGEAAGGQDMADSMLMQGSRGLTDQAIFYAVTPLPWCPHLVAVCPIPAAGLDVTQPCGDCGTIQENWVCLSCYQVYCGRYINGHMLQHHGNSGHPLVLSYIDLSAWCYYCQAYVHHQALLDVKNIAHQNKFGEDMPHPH
The experiment in a line: HDAC6 enzyme inhibitory activity assay. Format: biochemical. The method, then:
Section S1. Biological assays
Section S 1.1. HDAC6 enzyme inhibitory activity assay
Preparation of Master Mix. Trichostatin A in DMSO, Fluorogenic HDAC substrate 3, and HDAC6 human recombinant enzyme were diluted to 20 μM, 200 μM, and 7 ng/uL, respectively, using HDAC Assay Buffer.BSA was dissolved in 1 mL of distilled water to make a BSA solution at a concentration of 1 mg/mL. A certain amount of Fluorogenic HDAC substrate 3, BSA and HDAC Assay Buffer were mixed well to make a master mix, and 40 μL of the master mix was added to each well of a 96-well plate. In the drug administration group, 5 μL of Trichostatin A in DMSO and HDAC6 human recombinant enzyme were added to each well. 5 μL of HDAC Assay Buffer and HDAC6 human recombinant enzyme were added to each well of the blank group, and incubated for 30 min at 37 °C. Finally, 50 μL of undiluted HDAC substrate 3, BSA and HDAC Assay Buffer were added to each well. 50 μL of 2x HDAC Developer was added to each well and incubated at room temperature for 15 min. The samples were read in an enzyme marker with an excitation wavelength in the range of 350-380 nm and an emission light in the range of 440-460 nm.
The values of fluorescence intensities were read and the inhibition rate and IC50 were calculated. […]

Turning to `O=C(CCCCCCNc1ccc(NC(=O)c2cnc3scc(-c4ccc(Br)cc4)n23)cc1)NO` [Compound 10e, 3-(4-Bromophenyl)-N-{4-[(7-(hydroxyamino)-7-oxoheptyl)amino]phenyl}imidazo[2,1-b]thiazole-5-carboxamide], in assay [1], the Ac-α-tubulin levels result is on record as “markedly increased”. In assay [2], the concentration for half-maximal inhibition (IC50) came out at 58.2 nM. In assay [2] (HDAC1/HDAC6), the “Selectivity Index (SI) = HDAC1 IC50 value/HDAC6 IC50 value” is listed as 18.51. For the same compound, the inhibition at 1 µM in assay [2] (read-out: HDAC6 Inhibition Rate at 1 μM) turned out to be 90.5%.

As usually defined, the IC50 is the midpoint of a concentration-inhibition curve. By inhibition is commonly meant how much of the control response was suppressed.
